Assay results reported in ChEMBL document CHEMBL1128959, “Quinoline-substituted dihydroindoles as cysLT1 (LTD4 receptor) antagonists” (Bioorg Med Chem Lett, 1996).

Experiments:
[1] = target: T1, Cysteinyl leukotriene receptor 1 (Cavia porcellus) (UniProt Q2NNR5); experiment: Compound was tested for its inhibitory activity against specific binding of [3H]LTD4 to guinea pig ileum.; assay type: tissue-based
T1 sequence (whole entry): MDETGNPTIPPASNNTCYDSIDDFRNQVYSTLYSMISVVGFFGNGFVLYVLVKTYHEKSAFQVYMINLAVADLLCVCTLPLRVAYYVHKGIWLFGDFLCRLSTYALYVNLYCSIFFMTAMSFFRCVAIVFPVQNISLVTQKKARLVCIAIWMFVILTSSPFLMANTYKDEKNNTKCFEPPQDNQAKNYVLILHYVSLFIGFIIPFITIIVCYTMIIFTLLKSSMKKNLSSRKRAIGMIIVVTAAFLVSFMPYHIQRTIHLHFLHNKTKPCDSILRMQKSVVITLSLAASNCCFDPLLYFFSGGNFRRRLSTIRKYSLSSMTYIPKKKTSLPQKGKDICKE

[2] = target: T1, Cysteinyl leukotriene receptor 1 (Cavia porcellus); experiment: Compound was tested for its inhibitory activity against specific binding of [3H]LTD4 to guinea pig trachea.; assay type: tissue-based
Cavia porcellus [3] = experiment: Inhibition of aerosol administered LTD4-induced airway obstruction after oral administration in guinea pig 6 hr after administration; assay type: functional
Cavia porcellus [4] = experiment: Inhibition of aerosol administered LTD4-induced airway obstruction after oral administration in guinea pig 2 hr after administration; assay type: functional
[5] = target: T2, Cysteinyl leukotriene receptor 1 (Cavia porcellus, UniProt Q2NNR5); experiment: Compound was tested for its inhibitory activity against specific binding of [3H]LTD4 to guinea pig lung membrane.; assay type: tissue-based
T2 sequence (Q2NNR5 whole entry): T1 sequence (whole entry)

Structure (SMILES) | pKB [1] | pKB [2] | Inhibition (Cavia porcellus [3]) | Inhibition (Cavia porcellus [4]) | Ki [5]
Clc1ccc2ccc(COc3cccc(CN4CCc5cccc(CCc6nnn[nH]6)c54)c3)nc2c1 | 8.4 | 7.8 |  |  | 
c1cc(CCc2nnn[nH]2)c2c(c1)CCN2Cc1ccc(OCc2ccc3ccccc3n2)cc1 | 8.3 | 7.9 |  |  | 
Clc1ccc2ccc(/C=C/c3cccc(CN4CCc5cccc(CCc6nnn[nH]6)c54)c3)nc2c1 | 8.6 | 7 | 74% | 91% | 
Clc1ccc2ccc(/C=C/c3cccc(CN4CCc5cccc(OCc6nn[nH]n6)c54)c3)nc2c1 | 8.6 |  |  |  | 5.01 nM
Clc1ccc2ccc(COc3ccc(CN4CCc5cccc(CCc6nnn[nH]6)c54)cc3)nc2c1 | 8.5 | 7.6 | 81% | 51% | 
Clc1ccc2ccc(COc3ccc(Cn4ccc5cccc(CCc6nnn[nH]6)c54)cc3)nc2c1 |  |  |  | 16% | 
C(=C\c1ccc2ccccc2n1)/c1cccc(CN2CCc3cccc(CCc4nnn[nH]4)c32)c1 | 8.6 |  |  |  | 
Clc1ccc2ccc(/C=C/c3cccc(Cn4ccc5cccc(CCc6nnn[nH]6)c54)c3)nc2c1 |  |  | 21% | 69% | 
Clc1ccc2ccc(/C=C/c3ccc(CN4CCc5cccc(CCc6nnn[nH]6)c54)cc3)nc2c1 | 8.6 |  |  |  | 31.6 nM
